Results reported in EP3932918A1, “EUTECTIC CRYSTAL FORMED BY APIXABAN AND CARBOXYLIC ACID, AND PREPARATION METHOD THEREFOR” (Zhejiang Tianyu Pharmaceutical Co., Ltd., priority 2019, dated 2021).

Experiment: Dissolution rate test of Apixaban/carboxylic acid co-crystal (paddle method, Chinese Pharmacopoeia guidelines; equilibrium solubility in dissolution medium)
Format: physicochemical
Details: relative to Apixaban; dissolution medium 0.1mol/L hydrochloric acid, 37±0.5°C, paddle method 100rpm, 900ml, 500 mg sample powder
Experimental: Test Example 1: Dissolution rate test of Apixaban/carboxylic acid co-crystal
According to the dissolution rate test guidelines in the current Chinese Pharmacopoeia, a dissolution rate experiment was designed to respectively investigate the dissolution rates of the five Apixaban/carboxylic acid co-crystals prepared by the present invention. The specific scheme is as follows:
Table 6 Dissolution equipment and parameters
0.1mol/L hydrochloric acid solution: 9ml of hydrochloric acid was added into 1000ml of water and stirred well.
After the dissolution conditions were reached, 500 mg of sample powder were weighed and put into a dissolution cup, rotated, and immediately counted the time, after 1, 2, 3, 4, 6, 8, 10, 12, 14, 16, 18, 20, 22 and 24 hours, sampled with a sampling needle equipped with a 10µm polymeric polyethylene filter membrane, and filtered on-line through a 0.45µm polyvinylidene fluoride (PVDF) filter membrane.

| dissolution rate (times that of Apixaban) [times] | Substance |
| --- | --- |
| 1.44 | Apixaban/D-malic acid co-crystal [crystal form II] |
| 1.4 | Apixaban/malonic acid co-crystal [crystal form I] |
